Patent publication US9108983B2, “Pyrrole compounds, a process for their preparation and pharmaceutical compositions containing them” (LES LABORATOIRES SERVIER, priority 2013, dated 2015)
Where a name gives a salt, the structure may show the parent alone.

What was measured:
[1] = system: RS4;11 leukaemia tumour line; experiment: In vitro cytotoxicity (Microculture Tetrazolium Assay); type: cell-based; settings: Homo sapiens, RS4-11, 48 h, RS4;11 cells, exposed for 48 hours, cell viability; read-out: IC50 (nM) MTT RS4;11
Experimental: The cytotoxicity studies were carried out on the RS4;11 leukaemia tumour line.
The cells are distributed onto microplates and exposed to the test compounds for 48 hours.
The cell viability is then quantified by a colorimetric assay, the Microculture Tetrazolium Assay (Cancer Res., 1987, 47, 939-942).

Bcl-2 protein = Bcl-2 protein (histag-Bcl-2, UniProtKB P10415) (Homo sapiens (Human), UniProt P10415); experiment: Inhibition of Bcl-2 by the fluorescence polarisation technique; type: binding; settings: incubation for 2 hours, read-out: IC50 (nM) Bcl-2 FP
Summary of the method: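 In pH 7.4 buffer (Hepes 10 mM, NaCl 150 mM, Tween20 0.05%), test compounds at increasing concentrations competed with a fluorescein peptide (1.00×10^−8 M final) for histag-Bcl-2 (2.50×10^−8 M final). Readout was fluorescence polarisation after a 2 h incubation.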

Sequence of Bcl-2 protein (P10415 whole entry): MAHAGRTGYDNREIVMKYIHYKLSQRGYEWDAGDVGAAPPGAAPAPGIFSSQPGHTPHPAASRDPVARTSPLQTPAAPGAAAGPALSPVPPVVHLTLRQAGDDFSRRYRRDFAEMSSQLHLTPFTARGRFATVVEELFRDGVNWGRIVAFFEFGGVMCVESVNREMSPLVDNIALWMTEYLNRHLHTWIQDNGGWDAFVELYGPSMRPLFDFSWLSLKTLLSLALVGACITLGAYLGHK

| Compound | IC50 (Bcl-2 protein) | IC50 [1] |
| --- | --- | --- |
| Cc1c(C(=O)N(c2ccc(O)cc2)c2cnc3c(ccn3C)c2)cc(-c2cc(F)ccc2C(=O)N2Cc3ccccc3C[C@H]2CN2CCOCC2)n1C [Example 385, 5-(5-Fluoro-2-{[(3S)-3-(morpholin-4-ylmethyl)-3,4-dihydroisoquinolin-2(1H)-yl]carbonyl}phenyl)-N-(4-hydroxyphenyl)-1,2-dimethyl-N-(1-methyl-1H-pyrrolo[2,3-b]pyridin-5-yl)-1H-pyrrole-3-carboxamide hydrochloride] | 5.7 nM | 28.7 nM |
| Cc1c(C(=O)N(c2ccc(O)cc2)c2cc3ccn(C)c3cn2)cc(-c2cc3c(cc2C(=O)N2Cc4ccccc4C[C@H]2CN2CCOCC2)OCO3)n1C [Example 387, N-(4-Hydroxyphenyl)-1,2-dimethyl-N-(1-methyl-1H-pyrrolo[2,3-c]pyridin-5-yl)-5-(6-{[(3S)-3-(morpholin-4-ylmethyl)-3,4-dihydroisoquinolin-2(1H)-yl]carbonyl}-1,3-benzodioxol-5-yl)-1H-pyrrole-3-carboxamide hydrochloride] | 20.6 nM | 243 nM |
| Cc1c(C(=O)N(c2ccc(O)cc2)c2cc3ccn(C)c3cn2)cc(-c2cc(Cl)ccc2C(=O)N2Cc3ccccc3C[C@H]2CN2CCOCC2)n1C [Example 389, 5-(5-Chloro-2-{[(3S)-3-(morpholin-4-ylmethyl)-3,4-dihydroisoquinolin-2(1H)-yl]carbonyl}phenyl)-N-(4-hydroxyphenyl)-1,2-dimethyl-N-(1-methyl-1H-pyrrolo[2,3-c]pyridin-5-yl)-1H-pyrrole-3-carboxamide hydrochloride] | 14.7 nM | 208 nM |
| Cc1c(C(=O)N(c2ccccc2)c2cnc3c(ccn3C)c2)cc(-c2cc(Cl)ccc2C(=O)N2Cc3ccccc3C[C@H]2CN2CCOCC2)n1C [Example 390, 5-(5-Chloro-2-{[(3S)-3-(morpholin-4-ylmethyl)-3,4-dihydroisoquinolin-2(1H)-yl]carbonyl}phenyl)-1,2-dimethyl-N-(1-methyl-1H-pyrrolo[2,3-b]pyridin-5-yl)-N-phenyl-1H-pyrrole-3-carboxamide] | 21.2 nM | 173 nM |
| Cc1c(C(=O)N(c2ccc(O)cc2)c2ccc3c(ccn3C)n2)cc(-c2cc(Cl)ccc2C(=O)N2Cc3ccccc3C[C@H]2CN2CCOCC2)n1C [Example 391, 5-(5-Chloro-2-{[(3S)-3-(morpholin-4-ylmethyl)-3,4-dihydroisoquinolin-2(1H)-yl]carbonyl}phenyl)-N-(4-hydroxyphenyl)-1,2-dimethyl-N-(1-methyl-1H-pyrrolo[3,2-b]pyridin-5-yl)-1H-pyrrole-3-carboxamide hydrochloride] | 30.3 nM | 255 nM |
| Cc1c(C(=O)N(c2ccccc2)c2ccc(O)cc2)cc(-c2cc(Cl)ccc2C(=O)N2Cc3ccccc3C[C@H]2CCCN2CCOCC2)n1C [Example 392, 5-(5-Chloro-2-{[(3R)-3-[3-(morpholin-4-yl)propyl]-3,4-dihydroisoquinolin-2(1H)-yl]carbonyl}phenyl)-N-(4-hydroxyphenyl)-1,2-dimethyl-N-phenyl-1H-pyrrole-3-carboxamide hydrochloride] | 3.8 nM | 11.4 nM |
| Cc1c(C(=O)N(c2ccc(O)cc2)c2cnc3c(ccn3C)c2)cc(-c2cc(Cl)ccc2C(=O)N2Cc3ccccc3C[C@H]2CCCN2CCOCC2)n1C [Example 393, 5-(5-Chloro-2-{[(3R)-3-[3-(morpholin-4-yl)propyl]-3,4-dihydroisoquinolin-2(1H)-yl]carbonyl}phenyl)-N-(4-hydroxyphenyl)-1,2-dimethyl-N-(1-methyl-1H-pyrrolo[2,3-b]pyridin-5-yl)-1H-pyrrole-3-carboxamide hydrochloride] | 2.1 nM | 1.95 nM |
| Cc1c(C(=O)N(c2ccc(O)cc2)c2cnc3c(c2)CCN3C)cc(-c2cc(Cl)ccc2C(=O)N2Cc3ccccc3C[C@H]2CCCN2CCOCC2)n1C [Example 394, 5-(5-Chloro-2-{[(3R)-3-[3-(morpholin-4-yl)propyl]-3,4-dihydroisoquinolin-2(1H)-yl]carbonyl}phenyl)-N-(4-hydroxyphenyl)-1,2-dimethyl-N-(1-methyl-2,3-dihydro-1H-pyrrolo[2,3-b]pyridin-5-yl)-1H-pyrrole-3-carboxamide] | 2.5 nM | 2.76 nM |

More lines, main results first:

| IC50 (Bcl-2 protein) | Compound | IC50 [1] |
| --- | --- | --- |
| 3.5 nM | COc1ccc(N(C(=O)c2cc(-c3cc(Cl)ccc3C(=O)N3Cc4ccccc4C[C@H]3CN3CCOCC3)n(C)c2C)c2ccc(O)cc2)cc1C#N [Example 395, 5-(5-Chloro-2-{[(3S)-3-(morpholin-4-ylmethyl)-3,4-dihydroisoquinolin-2(1H)-yl]carbonyl}phenyl)-N-(3-cyano-4-methoxyphenyl)-N-(4-hydroxyphenyl)-1,2-dimethyl-1H-pyrrole-3-carboxamide hydrochloride] | 7.57 nM |
| 15.7 nM | Cc1c(C(=O)N(c2ccc(O)c(F)c2)c2cnn(C)c2)cc(-c2cc3c(cc2C(=O)N2Cc4ccccc4C[C@H]2CN2CCOCC2)OCO3)n1C [Example 396, N-(3-Fluoro-4-hydroxyphenyl)-1,2-dimethyl-N-(1-methyl-1H-pyrazol-4-yl)-5-(6-{[(3S)-3-(morpholin-4-ylmethyl)-3,4-dihydroisoquinolin-2(1H)-yl]carbonyl}-1,3-benzodioxol-5-yl)-1H-pyrrole-3-carboxamide hydrochloride] | 116 nM |
| 4.5 nM | COc1ncc(N(C(=O)c2cc(-c3cc(Cl)ccc3C(=O)N3Cc4ccccc4C[C@H]3CN3CCOCC3)n(C)c2C)c2ccc(O)cc2)cn1 [Example 397, 5-(5-Chloro-2-{[(3S)-3-(morpholin-4-ylmethyl)-3,4-dihydroisoquinolin-2(1H)-yl]carbonyl}phenyl)-N-(4-hydroxyphenyl)-N-(2-methoxypyrimidin-5-yl)-1,2-dimethyl-1H-pyrrole-3-carboxamide] | 37.1 nM |
| 3.9 nM | Cc1c(C(=O)N(c2ccc(O)cc2)c2cccc(C#N)c2)cc(-c2cc(Cl)ccc2C(=O)N2Cc3ccccc3C[C@H]2CN2CCOCC2)n1C [Example 398, 5-(5-Chloro-2-{[(3S)-3-(morpholin-4-ylmethyl)-3,4-dihydroisoquinolin-2(1H)-yl]carbonyl}phenyl)-N-(3-cyanophenyl)-N-(4-hydroxyphenyl)-1,2-dimethyl-1H-pyrrole-3-carboxamide hydrochloride] | 13.4 nM |
| 9.9 nM | Cc1c(C(=O)N(c2ccc(O)c(F)c2)c2cnn(C)c2)cc(-c2cc(Cl)ccc2C(=O)N2Cc3ccccc3C[C@H]2CN2CCOCC2)n1C [Example 399, 5-(5-Chloro-2-{[(3S)-3-(morpholin-4-ylmethyl)-3,4-dihydroisoquinolin-2(1H)-yl]carbonyl}phenyl)-N-(3-fluoro-4-hydroxyphenyl)-1,2-dimethyl-N-(1-methyl-1H-pyrazol-4-yl)-1H-pyrrole-3-carboxamide hydrochloride] | 155 nM |
| 49 nM | COC(=O)c1ccnc(N(C(=O)c2cc(-c3cc(Cl)ccc3C(=O)N3Cc4ccccc4C[C@H]3CN3CCOCC3)n(C)c2C)c2ccc(O)cc2)c1 [Example 400, Methyl 2-[{[5-(5-chloro-2-{[(3S)-3-(morpholin-4-ylmethyl)-3,4-dihydroisoquinolin-2(1H)-yl]carbonyl}phenyl)-1,2-dimethyl-1H-pyrrol-3-yl]carbonyl}(4-hydroxyphenyl)amino]pyridine-4-carboxylate hydrochloride] | 469 nM |
| 8 nM | Cc1c(C(=O)N(c2ccc(O)cc2)c2ccc(F)c(C#N)c2)cc(-c2cc(Cl)ccc2C(=O)N2Cc3ccccc3C[C@H]2CN2CCOCC2)n1C [Example 401, 5-(5-Chloro-2-{[(3S)-3-(morpholin-4-ylmethyl)-3,4-dihydroisoquinolin-2(1H)-yl]carbonyl}phenyl)-N-(3-cyano-4-fluorophenyl)-N-(4-hydroxyphenyl)-1,2-dimethyl-1H-pyrrole-3-carboxamide hydrochloride] | 24.3 nM |
| 24.4 nM | Cc1c(C(=O)N(c2ccc(O)cc2)c2ccnc(C#N)n2)cc(-c2cc(Cl)ccc2C(=O)N2Cc3ccccc3C[C@H]2CN2CCOCC2)n1C [Example 404, 5-(5-Chloro-2-{[(3S)-3-(morpholin-4-ylmethyl)-3,4-dihydroisoquinolin-2(1H)-yl]carbonyl}phenyl)-N-(2-cyanopyrimidin-4-yl)-N-(4-hydroxyphenyl)-1,2-dimethyl-1H-pyrrole-3-carboxamide hydrochloride] | 85.5 nM |
| 4.2 nM | Cc1c(N(C(=O)c2cc(-c3ccccc3C(=O)N3Cc4ccccc4C[C@H]3CN3CCOCC3)n(C)c2C)c2ccc(O)cc2)cc(C#N)n1C [Example 406, N-(5-Cyano-1,2-dimethyl-1H-pyrrol-3-yl)-N-(4-hydroxyphenyl)-1,2-dimethyl-5-(2-{[(3S)-3-(morpholin-4-ylmethyl)-3,4-dihydroisoquinolin-2(1H)-yl]carbonyl}phenyl)-1H-pyrrole-3-carboxamide hydrochloride] | 10.6 nM |
| 20.6 nM | COc1ccc(C(=O)N2Cc3ccccc3C[C@H]2CN2CCOCC2)c(-c2cc(C(=O)N(c3ccc(O)c(F)c3)c3cnn(C)c3)c(C)n2C)c1 [Example 407, N-(3-Fluoro-4-hydroxyphenyl)-5-(5-methoxy-2-{[(3S)-3-(morpholin-4-ylmethyl)-3,4-dihydroisoquinolin-2(1H)-yl]carbonyl}phenyl)-1,2-dimethyl-N-(1-methyl-1H-pyrazol-4-yl)-1H-pyrrole-3-carboxamide hydrochloride] | 150 nM |
